Reference: patent US7273848B2, “Apolipoprotein A-I agonists and their use to treat dyslipidemic disorders” (priority 1997, dated 2007)
Non-standard residues stand in square brackets, D forms with d. Residues, ends and D or L forms follow the SMILES beside them. No end group written: not given here. Orn = NCCC[C@H](N)C(=O)O; Aib = CC(C)(N)C(=O)O

Molecular target: T1, LCAT (purified from human plasma) (Homo sapiens, UniProt P04180)
T1 construct: from tissue; host or cells: human plasma
T1 sequence (P04180 25-440): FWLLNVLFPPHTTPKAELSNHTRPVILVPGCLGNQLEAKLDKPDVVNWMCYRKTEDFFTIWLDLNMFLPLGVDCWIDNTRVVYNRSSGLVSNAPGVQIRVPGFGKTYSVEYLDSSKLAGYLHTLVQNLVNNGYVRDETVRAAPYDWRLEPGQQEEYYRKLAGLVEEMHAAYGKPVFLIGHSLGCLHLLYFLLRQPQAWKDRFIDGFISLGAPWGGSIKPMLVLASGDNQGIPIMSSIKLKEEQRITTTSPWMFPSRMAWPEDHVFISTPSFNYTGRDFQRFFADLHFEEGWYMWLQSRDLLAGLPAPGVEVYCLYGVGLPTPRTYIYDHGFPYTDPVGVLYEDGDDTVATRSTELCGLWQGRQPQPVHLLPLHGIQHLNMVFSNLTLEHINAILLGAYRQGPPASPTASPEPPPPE
Assay: LCAT activation assay
Format: biochemical
Details: LCAT activation as compared with native human ApoA-I (= 100%), equivalent masses
Description: The peptides synthesized as described in Section 6, supra, were analyzed in vitro for their ability to activate LCAT. In the LCAT assay, substrate vesicles (small unilamellar vesicles or “SUVs”) composed of egg phophatidylcholine (EPC) or 1-Palmitoyl-2-oleyl-phosphatidyl-choline (POPC) and radiolabelled cholesterol are preincubated with equivalent masses either of peptide or ApoA-I (isolated from human plasma). The reaction is initiated by addition of LCAT (purified from human plasma). Native ApoA-I, which was used as positive control, represents 100% activation activity. “Specific activity” (i.e., units of activity (LCAT activation)/unit of mass) of the peptides can be calculated as the concentration of peptide that achieves maximum LCAT activation. For example, a series of concentrations of the peptide (e.g., a limiting dilution) can be assayed to determine the “specific activity” for the peptide—the concentration which achieves maximal LCAT activation (i.e., percentage conversion of cholesterol to cholesterol ester) at a specific timepoint in the assay (e.g., 1 hr.). When plotting percentage conversion of cholesterol at, e.g., 1 hr., against the concentration of peptide used, the “specific activity” can be identified as the concentration of peptide that achieves a plateau on the plotted curve.
The vesicles used in the LCAT assay are SUVs composed of egg phosphatidylcholine (EPC) or 1-palmitoyl-2-oleyl-phosphatidylcholine (POPC) and cholesterol with a molar ratio of 20:1. To prepare a vesicle stock solution sufficient for 40 assays, 7.7 mg EPC (or 7.6 mg POPC; 10 μmol), 78 μg (0.2 μmol) 4-^14C-cholesterol, 116 μg cholesterol (0.3 μmol) are dissolved in 5 ml xylene and lyophilized. Thereafter 4 ml of assay buffer is added to the dry powder and sonicated under nitrogen atmosphere at 4° C. Sonication conditions: Branson 250 sonicator, 10 mm tip, 6×5 minutes; Assay buffer: 10 mM Tris, 0.14 M NaCl, 1 mM EDTA, pH 7.4). The sonicated mixture is centrifuged 6 times for 5 minutes each time at 14,000 rpm (16,000×g) to remove titanium particles. The resulting clear solution is used for the enzyme assay.
For the LCAT purification, dextran sulfate/Mg^2+ treatment of human plasma is used to obtain lipoprotein deficient serum (LPDS), which is sequentially chromatographed on Phenylsepharose, Affigelblue, ConcanavalinA sepharose and anti-ApoA-I affinity chromatography, as summarized for a representative purification in TABLE IX, below: […]

Molecule	ACTIVITY (%) LCAT	ACTIVITY (%) LCAT (listed as N-acetylated, C-amidated peptide 18AM4)
CC(C)C[C@H](NC(=O)CNC(=O)[C@H](CCC(=O)O)NC(=O)[C@H](CC(N)=O)NC(=O)[C@H](CC(C)C)NC(=O)[C@H](CC(C)C)NC(=O)[C@H](CCC(=O)O)NC(=O)[C@H](CCCNC(=N)N)NC(=O)[C@H](Cc1ccccc1)NC(=O)[C@H](CC(C)C)NC(=O)[C@H](CC(=O)O)NC(=O)[C@H](CC(C)C)NC(=O)[C@@H](NC(=O)[C@H]1CCCN1)C(C)C)C(=O)N[C@@H](CCC(=O)O)C(=O)N[C@@H](C)C(=O)N[C@@H](CC(C)C)C(=O)N[C@@H](CCCCN)C(=O)N[C@@H](CCC(N)=O)C(=O)N[C@@H](CCCCN)C(=O)N[C@@H](CC(C)C)C(=O)N[C@@H](CCCCN)C(=O)O [compound 19] (H-[dP]VLDLFRELLNEGLEALKQKLK-OH)	58%	
CC(C)C[C@H](NC(=O)[C@H](C)NC(=O)[C@H](Cc1c[nH]c2ccccc12)NC(=O)[C@H](CC(C)C)NC(=O)C(C)(C)NC(=O)[C@H](CCC(=O)O)NC(=O)[C@H](CC(N)=O)NC(=O)[C@H](CC(C)C)NC(=O)[C@H](CC(C)C)NC(=O)[C@H](CCC(=O)O)NC(=O)[C@H](CCCNC(=N)N)NC(=O)[C@H](Cc1ccccc1)NC(=O)[C@H](CC(C)C)NC(=O)[C@H](CC(=O)O)NC(=O)[C@H](CC(C)C)NC(=O)[C@@H](NC(=O)[C@@H]1CCCN1)C(C)C)C(=O)N[C@@H](CCCCN)C(=O)N[C@@H](CCC(N)=O)C(=O)N[C@@H](CCCCN)C(=O)N[C@@H](CC(C)C)C(=O)N[C@@H](CCCCN)C(=O)O [compound 72, PVLDLFRELLNEXLWALKQKLK] (H-PVLDLFRELLNE[Aib]LWALKQKLK-OH)	11%	
CC(C)C[C@H](NC(=O)[C@H](C)NC(=O)[C@H](CCC(=O)O)NC(=O)[C@H](CC(C)C)NC(=O)C(C)(C)NC(=O)[C@H](CCC(=O)O)NC(=O)[C@H](CC(N)=O)NC(=O)[C@H](CC(C)C)NC(=O)[C@H](CC(C)C)NC(=O)[C@H](CCC(=O)O)NC(=O)[C@H](CCCNC(=N)N)NC(=O)[C@H](Cc1ccccc1)NC(=O)[C@H](CCCCN)NC(=O)[C@H](CC(=O)O)NC(=O)[C@H](CC(C)C)NC(=O)[C@@H](NC(=O)[C@@H]1CCCN1)C(C)C)C(=O)N[C@@H](CCCCN)C(=O)N[C@@H](CCC(N)=O)C(=O)N[C@@H](CCCCN)C(=O)N[C@@H](CC(C)C)C(=O)N[C@@H](CCCCN)C(=O)O [compound 88, PVLDKFRELLNEXLEALKQKLK] (H-PVLDKFRELLNE[Aib]LEALKQKLK-OH)	7%	
CC(C)C[C@H](NC(=O)[C@H](C)NC(=O)[C@H](CCC(=O)O)NC(=O)[C@H](CC(C)C)NC(=O)C(C)(C)NC(=O)[C@H](CCC(=O)O)NC(=O)[C@H](CCCCN)NC(=O)[C@H](CC(C)C)NC(=O)[C@H](CC(C)C)NC(=O)[C@H](CCC(=O)O)NC(=O)[C@H](CCCNC(=N)N)NC(=O)[C@H](Cc1ccccc1)NC(=O)[C@H](CCC(=O)O)NC(=O)[C@H](CC(=O)O)NC(=O)[C@H](CC(C)C)NC(=O)[C@@H](NC(=O)[C@@H]1CCCN1)C(C)C)C(=O)N[C@@H](CCCCN)C(=O)N[C@@H](CCC(N)=O)C(=O)N[C@@H](CCCCN)C(=O)N[C@@H](CC(C)C)C(=O)N[C@@H](CCCCN)C(=O)O [compound 68, PVLDEFRELLKEXLEALKQKLK] (H-PVLDEFRELLKE[Aib]LEALKQKLK-OH)	14%	
PVLELFENLLERWLDALQKKLK [compound 181]	8%	
Ac-NVLDLFRELLEELKQKLK-NH2 [compound 200]	75%	
Ac-PVLELLKELLEELKQKLK-NH2 [compound 207]	50%	
Ac-AVLDLFRELLEELKQKLK-NH2 [compound 203]	66%	
PVLDLFKELLQELLEALKQKLK [compound 11]	72%	
PVLELFKELLEELKQKLK [compound 216]	35%	
CC(C)C[C@H](NC(=O)[C@H](C)NC(=O)[C@H](CCC(=O)O)NC(=O)[C@H](CC(C)C)NC(=O)C(C)(C)NC(=O)[C@H](CCC(=O)O)NC(=O)[C@H](CC(N)=O)NC(=O)[C@H](CC(C)C)NC(=O)[C@H](CCCCN)NC(=O)[C@H](CCC(=O)O)NC(=O)[C@H](CCCNC(=N)N)NC(=O)[C@H](Cc1ccccc1)NC(=O)[C@H](Cc1ccccc1)NC(=O)[C@H](CC(=O)O)NC(=O)[C@H](CC(C)C)NC(=O)[C@@H](NC(=O)[C@@H]1CCCN1)C(C)C)C(=O)N[C@@H](CCCCN)C(=O)N[C@@H](CCC(N)=O)C(=O)N[C@@H](CCCCN)C(=O)N[C@@H](CC(C)C)C(=O)N[C@@H](CCCCN)C(=O)O [compound 63, PVLDFFREKLNEXLEALKQKLK] (H-PVLDFFREKLNE[Aib]LEALKQKLK-OH)	16%	
GVLDLFRELLNEGLEALKQKLK [compound 13]	67%	
LVLDLFRELLNELLEALKQKLK [compound 59]	17%	
PVLDLFRELLNELLEALKQKKK [compound 56]	18%	
PVLDLFRELLNELLEAGKQKLK [compound 12]	70%	
PVLELFKELLQELLEALKQKLK [compound 17]	59%	
Ac-PLLELLKELLEELKQKLK-NH2 [compound 206]	57%	

Further lines, results first:

ACTIVITY (%) LCAT	ACTIVITY (%) LCAT (listed as N-acetylated, C-amidated peptide 18AM4)	Molecule
15%		PVLDLFDNLLDRLLDLLNKKLK [compound 173]
11%	< 11%	Ac-EWLEAFYKKVLEKLKELF-NH2 [compound 239, reference compound]
43%		CC(=O)N1CCC[C@H]1C(=O)N[C@H](C(=O)N[C@@H](CC(C)C)C(=O)N[C@@H](CC(=O)O)C(=O)N[C@@H](CC(C)C)C(=O)N[C@@H](Cc1ccccc1)C(=O)N[C@@H](CCCN)C(=O)N[C@@H](CCC(=O)O)C(=O)N[C@@H](CC(C)C)C(=O)N[C@@H](CC(C)C)C(=O)N[C@@H](CCC(=O)O)C(=O)N[C@@H](CCC(=O)O)C(=O)N[C@@H](CC(C)C)C(=O)N[C@@H](CCCN)C(=O)N[C@@H](CCC(N)=O)C(=O)N[C@@H](CCCN)C(=O)N[C@@H](CC(C)C)C(=O)N[C@@H](CCCCN)C(N)=O)C(C)C [compound 212, PVLDLFOELLEELOQOLK] (Ac-PVLDLF[Orn]ELLEEL[Orn]Q[Orn]LK-NH2)
0%		PVLDEFREKLNEELEWLKQKLK [compound 122]
0%		Ac-PVLDLFREGLEELKQKLK-NH2 [compound 228]
30%		PVLEFFENLLERLLDALQKKLK [compound 157]
0%		CC(C)C[C@H](NC(=O)[C@H](C)NC(=O)[C@H](CCC(=O)O)NC(=O)[C@H](CO)NC(=O)C(C)(C)NC(=O)[C@H](CCC(=O)O)NC(=O)[C@H](CC(N)=O)NC(=O)[C@H](CC(C)C)NC(=O)[C@H](CCCCN)NC(=O)[C@H](CCC(=O)O)NC(=O)[C@H](CCCNC(=N)N)NC(=O)[C@H](Cc1ccccc1)NC(=O)[C@H](CCC(=O)O)NC(=O)[C@H](CC(=O)O)NC(=O)[C@H](CC(C)C)NC(=O)[C@@H](NC(=O)[C@@H]1CCCN1)C(C)C)C(=O)N[C@@H](CCCCN)C(=O)N[C@@H](CCC(N)=O)C(=O)N[C@@H](CCCCN)C(=O)N[C@@H](CC(C)C)C(=O)N[C@@H](CCCCN)C(=O)O [compound 112, PVLDEFREKLNEXSEALKQKLK] (H-PVLDEFREKLNE[Aib]SEALKQKLK-OH)
48%		Ac-PALELFKDLLEELRQRLK-NH2 [compound 208]
81%		Ac-PVLDLFRELLEELKNKLK-NH2 [compound 196]
8%		PVLDLFREGWEELKQKLK [compound 224]
9%		PVLELFDNLLEKLLEALQKKLR [compound 178]
17%		PVLELFEQLLEKLLDALQKKLK [compound 168]
38%		PVLELFLNLWERLLDALQKKLK [peptide 155]
105%		GVLDLFRELLNELLEALKQKLKK [peptide 2]
70%		Ac-PALELFKDLLEELRQKLR-NH2 [compound 202]
35%		PVLELFLNLLERLLDALQKKLK [compound 156]
28%		PVLDLFENLLERLLDALQKKLK [compound 159]
